In general, ED50 refers to the midpoint of the dose-response relation.

What all share (type): functional
Assay [1] concerns Rattus norvegicus. As to the kind of experiment: Antihyperglycemic activity in streptozotocin-induced diabetic Sprague-Dawley rat model assessed as glucose tolerance at 100 mg/kg, po administered 30 mins before sucrose-load.
Assay [2] has as its system Mus musculus. Briefly: Antihyperglycemic activity in diabetic C57BL/KsJ-db/db mouse model assessed as decrease in postprandial blood glucose level at 50 mg/kg, po for 10 days relative to control. Also on record: scale not given: the % may be the effect or the level left.
The test system of assay [3] is Mus musculus. Briefly: Antihyperglycemic activity in diabetic C57BL/KsJ-db/db mouse model assessed as improvement in glucose tolerance at 50 mg/kg, po for 10 days relative to control by OGTT.
Assay [4] concerns Mus musculus. Briefly: Antihyperglycemic activity in diabetic C57BL/KsJ-db/db mouse model assessed as decrease in blood glucose AUC at 50 mg/kg, po for 10 days relative to control. Also on record: scale not given: the % may be the effect or the level left.
For assay [5], the system named is Mus musculus. Briefly: Antihyperglycemic activity in diabetic C57BL/KsJ-db/db mouse model assessed as decrease in plasma triglyceride level at 50 mg/kg, po for 10 days relative to control. Also on record: scale not given: the % may be the effect or the level left.
Assay [6] concerns Mus musculus. Briefly: Antihyperglycemic activity in diabetic C57BL/KsJ-db/db mouse model assessed as decrease in total cholesterol at 50 mg/kg, po for 10 days relative to control. Also noted: scale not given: the % may be the effect or the level left.
Assay [7] deals with Mus musculus. Briefly: Antihyperglycemic activity in diabetic C57BL/KsJ-db/db mouse model assessed as increase in high-density lipoprotein cholesterol at 50 mg/kg, po for 10 days relative to control.
The subject of assay [8] is Mus musculus. As to the kind of experiment: Antihyperglycemic activity in diabetic C57BL/KsJ-db/db mouse model assessed as decrease in low-density lipoprotein cholesterol at 50 mg/kg, po for 10 days relative to control. Also noted: scale not given: the % may be the effect or the level left.
The test system of assay [9] is Mus musculus. As to the kind of experiment: Antihyperglycemic activity in diabetic C57BL/KsJ-db/db mouse model assessed as decrease in very low-density lipoprotein cholesterol at 50 mg/kg, po for 10 days relative to control. Also noted: scale not given: the % may be the effect or the level left.
Assay [10] has as its system Mus musculus. Briefly: Antihyperglycemic activity in po dosed diabetic C57BL/KsJ-db/db mouse model assessed as decrease in postprandial blood glucose level for 10 days. The note with it: 240 h.
The test system of assay [11] is Rattus norvegicus. As to the kind of experiment: Antihyperglycemic activity in Sprague-Dawley normoglycemic rat model assessed as glucose tolerance at 100 mg/kg, po administered 30 mins before sucrose-load.

In the case of `CC1=C(C)C(=O)O[C@@H]([C@](C)(O)[C@]2(O)CC[C@@]3(O)[C@@H]4CC=C5C[C@@H](O[C@@H]6O[C@H](CO)[C@@H](O)[C@H](O)[C@H]6O)CC(=O)[C@]5(C)[C@H]4CC[C@]23C)C1`, the Activity is 23.3% in assay [1]; 22.7% in assay [2]; 44.1% in assay [3]; 40.5% in assay [4]; 14.7% in assay [5]; 25.7% in assay [6]. Also, the Activity is recorded as 24.7% in assay [7], 21.2% in assay [8], 15.6% in [9] and 29.8% in [11]. In assay [10], the ED50 stood at 25 mg/kg.

In the case of `CC1=C(C)C(=O)O[C@@H]([C@](C)(O)[C@]2(O)CC[C@@]3(O)[C@@H]4CC=C5C=CCC(=O)[C@]5(C)[C@H]4CC[C@]23C)C1`, the Activity stood at 15.8% in assay [1] and 20.4% in [11].

Take `CC1=C(C)C(=O)O[C@@H]([C@](C)(O)[C@]2(O)C[C@H](O)[C@@]3(O)[C@@H]4CC=C5CC=CC(=O)[C@]5(C)[C@H]4CC[C@@]32C)C1` [COAGULANOLIDE]: the Activity in [1] is reported as 14.7%; in assay [11], 28.1%.

On to `CC1=C(C)C(=O)O[C@@H]([C@]2(C)O[C@@]34CC[C@]2(O)[C@@]3(C)CC[C@H]2[C@H]4CC=C3CC=CC(=O)[C@@]32C)C1` [COAGULIN C], for which the Activity in assay [1] was determined as 16.9%; in assay [11] it was 22.8%.

Regarding `CC(C)OC(=O)C(C)(C)Oc1ccc(C(=O)c2ccc(Cl)cc2)cc1` [FENOFIBRATE], the Activity amounted to 16.2% in assay [5]; 30.8% in assay [6]; 12.4% in assay [7]; 24.5% in assay [8]; 21.6% in assay [9].

With `CN(C)C(=N)NC(=N)N` [METFORMIN], the Activity is 17.1% in [1]; 18.6% in [2]; 24.8% in [3]; 24.8% in [4]; 26.4% in assay [11].

For `CC1=C(C)C(=O)O[C@@H]([C@](C)(O)[C@]2(O)CC[C@@]3(O)[C@@H]4CC=C5CC=CC(=O)[C@]5(C)[C@H]4CC[C@]23C)C1` [WITHANOLIDE F], the Activity in [1] was 18.2%; in assay [11] it was 24.9%.

Values taken from ChEMBL document CHEMBL1152162, “Coagulanolide, a withanolide from Withania coagulans fruits and antihyperglycemic activity” (2008).
